PMC11519904, “Comprehensive Cell Biological Investigation of Cytochalasin B Derivatives with Distinct Activities on the Actin Network” (Journal of Natural Products, 2024)
Values joined by “and” are separate entries in the source; they are usually repeats but may differ in a detail not shown here. Equal values may be shown once. Read-outs that look alike come from different tables or passages of the source.

Tests used:
L929 (mouse fibroblast) = assay: Cytotoxicity assay (MTT), L929; assay type: cell-based; details: 5 days of incubation, MTT, NC: no cytotoxic effect, or only weak inhibition of proliferation, read-out: IC50 L929
Method: The cytotoxicity assay was implemented in 96-well flat-bottom microtiter plates following a reported procedure.[21],[22],[33] The mammalian cell lines L929 (mouse fibroblast) and KB3.1 (human cervix carcinoma) were cultivated at 37 °C and 10% CO2 in Dulbecco’s modified minimum essential medium (DMEM, Life Technologies, Carlsbad, CA, USA) supplemented with 10% fetal bovine serum (FBS, Life Technologies). The microtiter plate was filled with 120 μL of suspended cells (50,000/mL), and 60 μL of a serial dilution of the test compound was added. After 5 days of incubation, growth inhibition (IC50) was determined by a colorimetric tetrazolium dye MTT assay.[34] The compounds were dissolved in MeOH (1 mg/mL), MeOH was used as negative control, and epothilone[35] (1 mg/mL) was used as positive control.

[1] = target: T1, actin (G-actin purified from rabbit skeletal muscle) (Oryctolagus cuniculus, UniProt P68135); assay: Pyrene actin polymerization assay; assay type: biochemical; details: 2 μM compound, 2 μM actin (5% pyrene-actin), 550 nM actin seeds, after 30 min; control = 100%
T1 construct: 1.5 kg of fresh rabbit skeletal muscle was minced with a meat grinder; from tissue; host or cells: rabbit skeletal muscle (acetone powder)
Description: To rule out that the reduced in cellulo efficacies of 3–5 could instead be explained by an altered membrane permeability of modified compounds or their differential effects on other intracellular factors, pyrene actin polymerization assays[23] were used to analyze potential effects on actin assembly in vitro under defined conditions. Globular actin (G-actin) was purified from rabbit skeletal muscle[24] and fluorescently labeled with pyrene (see description in the Supporting Information). G-actin (2 μM) supplemented with 5% pyrene-labeled actin was added to actin seeds and the respective compound (2 μM) in polymerization buffer to initiate the reaction. Actin polymerization was then assessed by reading out the increasing pyrene fluorescence signal over time (Figure 3).
Acetone powder and G-actin were prepared as described previously.[24] Briefly, 1.5 kg of fresh rabbit skeletal muscle was minced with a meat grinder. Subsequently, the meat was stirred for 15 min in 2.5 L of high-salt buffer (0.5 M KCl, 0.1 M K2HPO4, 2 mM benzamidine, pH 6.4) and then pelleted at 4000g for 10 min. The supernatant was discarded, and the pellet was extracted once more with high-salt buffer and then washed twice with ice-cold ddH2O adjusting the slurry with 1 M Na2CO3 to pH 8.3 until a slight swelling of the pellet became visible. The pellet was then resuspended in ice-cold acetone, stirred for 15 min, and then centrifuged for 10 min at 4000g. The supernatant was discarded, and the pellet was washed once more with acetone before the pellet was broken up and dried in small pieces on aluminum foil under a fume hood overnight. The dried acetone powder was stored at −80 °C for further use.
For purification of G-actin, 5 g of the acetone powder was extracted five times with 50 mL of G-buffer containing 2 mM Tris-HCl, pH 8.0, 0.2 mM CaCl2, 0.5 mM DTT, 0.2 mM Na2ATP, and 0.1 mg/mL NaN3. After each step, the solution was filtered through a fine gauze, yielding a total volume of 250 mL. Subsequently, the solution was centrifuged for 30 min at 20,000g at 4 °C. Actin in the supernatant was then polymerized by addition of 25 × polymerization buffer (250 mM Tris-HCl pH 8.0, 1250 mM KCl, 25 mM Na2ATP, 50 mM MgCl2 × 6 H2O) overnight. Subsequently, KCl was added to a final concentration of 750 mM, followed by centrifugation of the solution at 150,000g at 4 °C for 3 h. The F-actin pellet was then homogenized with 25 mL of G-actin buffer using a potter and then dialyzed against G-buffer. After a final centrifugation step at 150,000g at 4 °C for 3 h, G-actin was purified by size exclusion chromatography using a HiLoad 26/75 Superdex 200 column. Actin concentrations were determined by measuring the absorbance at 290 nm and using an extinction coefficient of 26,600 M^–1 cm^–1.
For pyrene labeling, 10–20 mL of G-actin solution were dialyzed against labeling buffer following the procedure described by Doolittle et al.[38] […]
Pyrene assays were conducted to assess the inhibitory properties of cytochalasins on actin polymerization under defined conditions in vitro using G-actin and actin seeds. The degree of labeling was determined; EC290 nm actin: 26600 1/M × cm; EC342 nm pyrene: 31091 1/M × cm. […]

[2] = Microextraction of compounds from medium after cell exposure (conversion to 2); assay type: in vitro ADME, human; details: for conversion to 2 after 1 h: 1 h cell exposure (data not shown)
Method: […] Therefore, cells were seeded and treated with 5 × IC50 concentrations, as already described. […] After evaporation of EtOAc, the dried extracts were diluted in methanol (50 μL) and measured with a high-pressure liquid chromatography system coupled to a diode-array UV/vis detector conjugated with an electrospray ionization mass spectrometer, using an UltiMate 3000 Series uHPLC (Thermo Fisher Scientific) utilizing a C18 Acquity UPLC BEH column (2.1 × 50 mm, 1.7 μm; Waters, Milford, USA) connected to an amaZon speed ESI-Iontrap-MS (Bruker, Billerica, MA, USA). Spectra were analyzed using Bruker Compass DataAnalysis 4.4 SR1.

| SMILES | IC50 (L929 (mouse fibroblast)) | IC50 (L929 (mouse fibroblast); Mus musculus, L929, 120 h) | relative actin polymerization rate [1] | conversion to 2 / decomposition after 24 h cell exposure ([2]; medium re-extracted after 24 h, 5 x IC50, HPLC-UV-MS) | conversion to 2 after 1 h [2] |
| --- | --- | --- | --- | --- | --- |
| C=C1[C@@H](C)[C@H]2[C@H](Cc3ccccc3)NC(=O)[C@]23OC(=O)/C=C/[C@H](O)CCC[C@@H](C)C/C=C/[C@H]3[C@@H]1OC(C)=O [Compound 3, 7-O-acetyl cytochalasin B] | 16 µM | > 10 µM | 107% | no decomposition |  |
| C=C1[C@@H](C)[C@H]2[C@H](Cc3ccccc3)N(C(C)=O)C(=O)[C@]23OC(=O)/C=C/[C@H](O)CCC[C@@H](C)C/C=C/[C@H]3[C@@H]1O [Compound 5, N-acetyl cytochalasin B] | 9.4 µM | 4.8 to 9.4 µM | 86% and 84–86% |  | little conversion |
| C=C1[C@@H](C)[C@H]2[C@H](Cc3ccccc3)NC(=O)[C@]23OC(=O)/C=C/[C@H](OC(C)=O)CCC[C@@H](C)C/C=C/[C@H]3[C@@H]1O [Compound 6, 20-O-acetyl cytochalasin B] | 4.8 µM | 4.8 to 9.4 µM | 58% |  | not detected |
